Experimental findings from patent US20260297042A1, “BIARYLAMIDE DERIVATIVES AND THEIR USE AS PKMYT1 INHIBITORS” (CANCER RESEARCH TECHNOLOGY LIMITED, priority 2023, published 2026) are described below.

A word on the IC50: it is the concentration that inhibits the measured activity by half. The low end stands for greater potency, the high end for weaker potency. As usually defined, the GI50 is the concentration giving 50% growth inhibition.

For one assay, the target named is T1, Human PKMYT1 (Homo sapiens, UniProt Q99640).
T1 construct: Human PKMYT1 75-362 was cloned as a TEV cleavable 6xHis fusion; 6xHis (TEV cleavable) (cleaved yes); made in house; host or cells: bacterial cells
T1 sequence (Q99640 75-362): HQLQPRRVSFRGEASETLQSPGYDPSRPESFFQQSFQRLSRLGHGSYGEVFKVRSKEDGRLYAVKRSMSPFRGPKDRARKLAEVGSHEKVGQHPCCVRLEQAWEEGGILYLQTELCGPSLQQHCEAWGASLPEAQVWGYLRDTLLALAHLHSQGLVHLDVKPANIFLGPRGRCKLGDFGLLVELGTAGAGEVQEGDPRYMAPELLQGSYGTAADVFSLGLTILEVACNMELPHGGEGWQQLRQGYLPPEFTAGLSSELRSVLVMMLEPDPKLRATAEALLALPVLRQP
As to the kind of experiment: PKMYT1 biochemical ADP-Glo enzymatic assay. Particulars: ADP-Glo; 15 nM PKMYT1 kinase domain, 500 µM ATP, 60 minutes at 26° C.; banded. The gist of the method: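 PKMYT1 75-362 (His-cleaved, bacterial) 15 nM; ATP 500 µM; HEPES pH 7.5, MgCl2, EGTA, Brij-35, 1% DMSO; 60 min, 26 °C; ADP-Glo Max luminescence; 10-pt 3-fold titration → IC50; replicates within 3-fold, r2 >0.9.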
On the technique in general: ADP-Glo turns the ADP formed in a reaction into a luminescent signal.

Another assay has as its system KYSE-30 cells. In words: Cancer cell line proliferation assay, nuclear count, KYSE-30 (normal CCNE1). Conditions: Homo sapiens, normal CCNE1 expression, banded, read-out: KYSE30 GI50. Format: cell-based. Here is the method: h-TERT-RPE1 TP53−/− and CCNE1 high expressing clones (clone cell lines 7 and 15) were treated with test compounds dissolved in DMSO at serially diluted concentrations alongside a DMSO only control for around 6 population doublings time. Cells were then fixed with 4% Paraformaldehyde and the cell nuclei were stained with DAPI (Sigma D9542). Images covering each well were acquired by an Opera Phenix® High-Content Screening System (PerkinElmer). Image analysis was performed using Harmony® high-content analysis software (PerkinElmer). Data analysis was performed using Microsoft Excel® and GI50 estimates generated with GraphPad Prism v9. Percent nuclear count was compared to vehicle control wells and used to measure inhibition of proliferation.
Cancer cell lines with either normal (KYSE-30) or amplified CCNE1 expression (OVCAR3-ovarian cancer) were evaluated for their sensitivity to PKMYT1 inhibitors in a nuclear count assay as described above for h-TERT-RPE1 TP53−/− and a CCNE1 high expressing clones, taking into account the slower cell cycle division times of these lines.

The target of assay [1] is T2, Cellular PKMYT1 Biomarker CDK1 pT14 (Homo sapiens, UniProt Q99640).
T2 construct: read-out CDK1 phospho-T14 immunoblot
T2 sequence (Q99640 1-499): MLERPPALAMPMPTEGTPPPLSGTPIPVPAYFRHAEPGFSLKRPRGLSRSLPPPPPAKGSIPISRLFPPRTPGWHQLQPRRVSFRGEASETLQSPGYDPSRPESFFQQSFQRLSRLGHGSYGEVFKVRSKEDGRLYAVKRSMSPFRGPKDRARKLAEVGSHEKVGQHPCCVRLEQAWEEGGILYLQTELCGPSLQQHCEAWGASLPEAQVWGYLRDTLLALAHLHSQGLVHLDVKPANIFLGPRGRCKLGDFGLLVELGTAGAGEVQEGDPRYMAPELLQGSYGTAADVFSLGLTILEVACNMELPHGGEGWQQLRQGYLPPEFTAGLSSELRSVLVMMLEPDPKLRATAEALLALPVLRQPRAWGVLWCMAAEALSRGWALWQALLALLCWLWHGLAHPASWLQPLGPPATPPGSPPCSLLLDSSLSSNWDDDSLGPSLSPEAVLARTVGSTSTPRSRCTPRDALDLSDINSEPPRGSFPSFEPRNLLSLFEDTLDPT
As to the kind of experiment: Inhibition of cellular PKMYT1 biomarker CDK1 pT14 in OVCAR 3 cells (immunoblot). Conditions: 20 hours incubation. Format: cell-based. The gist of the method:
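Confluent OVCAR 3 cells treated with a compound concentration range for 20 h at 37 °C. Lysates analysed by automated capillary immunoblot for CDK1 phospho-T14, with vinculin, fluorescence detection; IC50 by regression.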

For `CCN(CC)C(=O)Cn1cc(C)c(Nc2ncc(C(=O)Nc3c(C)ccc(O)c3C)s2)n1` [BAA-207, 2-[[1-[2-(diethylamino)-2-oxo-ethyl]-4-methyl-pyrazol-3-yl]amino]-N-(3-hydroxy-2,6-dimethyl-phenyl)thiazole-5-carboxamide], the IC50 at Human PKMYT1 was less than 50 nM; in assay [1] it was less than 100 nM. The GI50 in the assay with KYSE-30 cells was in the range of 3000 to 10000 nM.
